Data: article PMC3997506, “Novel PPAR Pan Agonist, ZBH Ameliorates Hyperlipidemia and Insulin Resistance in High Fat Diet Induced Hyperlipidemic Hamster” (PLoS ONE, 2014)

Assays:
hyperlipidemic hamsters = experiment: High fat diet induced hyperlipidemic hamster, 5-week oral treatment; format: in vivo, golden Syrian hamsters (Mesocricetus auratus)
From the text: Male golden Syrian hamsters (Mesocricetus auratus) weighing 90–110 g were purchased from Vital River Laboratory Animal Technology Co. Ltd. (Beijing, China). Animals were maintained on a 12-h day/night schedule with ad libitum access to nutrition and water. […] Blood samples were taken after overnight fasting from the suborbital sinus under light sevoflurane anesthesia on the fifth and tenth day for measurement of serum total cholesterol (TC) and triglyceride (TG). […] The dose selection of ZBH was based on previous pilot study. Hamsters with standard rodent diet were used as normal control. Compounds were dissolved in DMSO and suspended in 0.5% methylcellulose and administered by gavage once a day for 5 weeks. Individual body weight and cage food consumption were measured every two days. Dynamic serum lipid monitoring was performed weekly and blood samples were taken from the retro-orbital venous plexus under light ether anesthesia using a glass capillary tube after overnight fasting. Then the animal were sacrificed by cervical decapitation under anesthesia, and the liver, heart, epididymal white adipose tissue (eWAT) and gastrocnemius muscle were excised, rapidly frozen in liquid nitrogen and maintained at −80°C until analysis. Serum TC, TG and free fatty acids (FFA) were measured by using commercial kit (Nanjing Jiancheng, Bioengineering Institute, Nanjing, China) as previously described. Serum glucose, low-density lipoprotein cholesterol (LDLc) and high-density lipoprotein cholesterol (HDLc) were measured with the Hitachi 917 automated biochemistry analyzer (Roche diagnostics, Indianapolis, USA). Serum insulin was quantified by ELISA using a hamster insulin assay kit (Crystal Chem Inc., IL, and USA). The insulin sensitivity index (ISI) was calculated by the values of fasting blood glucose (FBG) and fasting blood insulin (FBI). ISI = 1/(FBG×FBI) 1000 [21]. […] After evaporation of the chloroform under nitrogen, lipid samples were resuspended in isopropyl alcohol, and TG and TC content was determined by enzymatic assay. […] Frozen liver samples were used to perform hepatic lipid specific staining with Oil Red O staining.

SIRT1 mRNA = experiment: Quantitative real-time PCR of tissues of hyperlipidemic hamsters; format: in vivo, golden Syrian hamsters (Mesocricetus auratus); conditions: short-term (3 days) and chronic (5 weeks) treatment
Protocol: To determine the relative mRNA expression levels of lipid metabolism-related genes, total RNA was isolated from the liver, white adipose tissue (WAT) or muscle and real-time PCR was performed with the ABI PRISM 7300 sequence detection system (Applied Biosystems, Warrington, UK) as previously described. The relative amount of all mRNAs was calculated using the comparative CT method. Target gene expression is presented relative to β-actin expression.
Figure 9 Effects of ZBH on gene expression in hyperlipidemic hamsters. Relative gene expression of the indicated genes in the liver (A and B), WAT (C and D) and skeletal muscle (E and F) of hyperlipidemic hamsters following 3 days (A, C and E) and/or 5 weeks (B, D and F) of ZBH or BEZ administration was determined by QPCR. Results are normalized to β-actin and expressed as mean fold increase of mRNA ±SD compared to the normal hamsters (NC). n = 3. *P<0.05, **P<0.01, ***P<0.001 vs. MC group.

SIRT1 = molecular target: T1, SIRT1 (Homo sapiens, UniProt Q96EB6); experiment: SIRT1 enzyme activity assay (Direct Fluorescent Screening Assay kit); format: biochemical; conditions: read-out: SIRT1 maximal activation
T1 construct: purchased Cayman chemical
T1 sequence (Q96EB6 1-747): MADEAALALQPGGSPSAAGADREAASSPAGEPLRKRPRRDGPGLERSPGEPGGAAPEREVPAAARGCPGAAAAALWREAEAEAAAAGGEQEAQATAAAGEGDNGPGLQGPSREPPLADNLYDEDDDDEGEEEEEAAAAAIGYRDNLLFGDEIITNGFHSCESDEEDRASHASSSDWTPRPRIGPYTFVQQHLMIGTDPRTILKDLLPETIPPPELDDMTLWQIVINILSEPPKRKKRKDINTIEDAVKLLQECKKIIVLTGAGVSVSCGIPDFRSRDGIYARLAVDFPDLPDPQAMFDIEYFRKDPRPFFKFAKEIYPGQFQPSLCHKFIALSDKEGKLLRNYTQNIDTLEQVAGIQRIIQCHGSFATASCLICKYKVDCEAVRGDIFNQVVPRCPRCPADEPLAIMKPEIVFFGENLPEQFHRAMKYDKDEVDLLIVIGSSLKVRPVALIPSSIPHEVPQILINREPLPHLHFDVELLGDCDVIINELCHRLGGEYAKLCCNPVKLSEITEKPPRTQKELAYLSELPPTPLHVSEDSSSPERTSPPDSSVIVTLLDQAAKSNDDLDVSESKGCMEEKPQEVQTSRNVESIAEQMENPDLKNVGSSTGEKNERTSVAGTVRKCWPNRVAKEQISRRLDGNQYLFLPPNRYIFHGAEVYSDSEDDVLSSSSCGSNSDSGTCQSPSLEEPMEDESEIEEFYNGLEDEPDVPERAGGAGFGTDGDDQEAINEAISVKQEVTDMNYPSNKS
Protocol: SIRT1 enzyme activity was assayed with the SIRT1 Direct Fluorescent Screening Assay kit (Cayman chemical, MI, USA), according to the manufacturer’s instructions. Fluorescence was measured on an EnVision Multilabel Plate Reader (PerkinElmer, CA, USA). DMSO was used as a negative control and also as a solvent for resveratrol and ZBH.
Figure 4 Activation of SIRT1 by ZBH. SIRT1 enzyme activity was measured after treatment with ZBH and Resveratrol, and the fluorescence was tested on EnVision Multilabel Plate Reader. Values are mean±SE, n = 3.

[1] = stated in Introduction, no method given; cited from earlier work
3T3-L1 adipocytes = experiment: Adiponectin expression in 3T3-L1 adipocytes; format: cell-based; conditions: 10–100 µM, dose dependent, data not shown

COc1ccc(/C=C/c2cc(OC)cc(OCCCC(C)(C)C(=O)O)c2)cc1 [ZBH, (E)-5-(3-methoxy-5-(4-methoxystyryl)phenoxy) -2,2-dimethylpentanoic acid]
Kidney weight (hyperlipidemic hamsters; 6.25 mg/kg, 5 weeks): 1.01 ± 0.08 g
Liver weight (hyperlipidemic hamsters; 6.25 mg/kg, 5 weeks): 7.78 ± 0.23 g
Retroperitoneal WAT (hyperlipidemic hamsters; 6.25 mg/kg, 5 weeks): 13.93 ± 0.82 g
Subcutaneous WAT (hyperlipidemic hamsters; 6.25 mg/kg, 5 weeks): 7.28 ± 0.32 g
iBAT (hyperlipidemic hamsters; 6.25 mg/kg, 5 weeks): 0.23 ± 0.01 g
Kidney weight (hyperlipidemic hamsters; 12.5 mg/kg, 5 weeks): 0.95 ± 0.09 g
Liver weight (hyperlipidemic hamsters; 12.5 mg/kg, 5 weeks): 7.77 ± 0.31 g
Retroperitoneal WAT (hyperlipidemic hamsters; 12.5 mg/kg, 5 weeks): 12.63 ± 0.66 g
Subcutaneous WAT (hyperlipidemic hamsters; 12.5 mg/kg, 5 weeks): 6.53 ± 0.42 g
iBAT (hyperlipidemic hamsters; 12.5 mg/kg, 5 weeks): 0.21 ± 0.01 g
maximum decrease in serum insulin levels (hyperlipidemic hamsters; 25 mg kg^−1, 5 weeks): 84%
serum FFA (hyperlipidemic hamsters; 25 mg kg^−1, after one-week treatment until the end): lowered remarkably
Kidney weight (hyperlipidemic hamsters; 25 mg/kg, 5 weeks): 0.94 ± 0.05 g
Liver weight (hyperlipidemic hamsters; 25 mg/kg, 5 weeks): 8.52 ± 0.45 g
Retroperitoneal WAT (hyperlipidemic hamsters; 25 mg/kg, 5 weeks): 10.43 ± 0.39 g
Subcutaneous WAT (hyperlipidemic hamsters; 25 mg/kg, 5 weeks): 5.19 ± 0.12 g
iBAT (hyperlipidemic hamsters; 25 mg/kg, 5 weeks): 0.19 ± 0.01 g
hepatic TG contents / hepatic steatosis (hyperlipidemic hamsters; 5 weeks, Figure 7): greatly lowered
serum GOT, GPT, CK and creatinine levels (hyperlipidemic hamsters; 5 weeks, Figure S1): not altered
increase of the weight of the liver (hyperlipidemic hamsters; 6.25-25 mg/kg, after 5 weeks, vs MC): 7%∼17
serum TG, TC and LDLc (hyperlipidemic hamsters; 12.5 or 25 mg kg^−1): time and dose-dependent decrease
impact on food intake (hyperlipidemic hamsters; Figure 5B): negligible
body weight gain (hyperlipidemic hamsters; ZBH 25 mg/kg, bezafibrate 50 mg/kg, Figure 5A): gained less weight
increase in relative liver weight (hyperlipidemic hamsters; highest dose, relative to MC): 17%
SIRT1 mRNA expression in liver, adipose tissue and skeletal muscle (SIRT1 mRNA): upregulated
Emax (SIRT1): 136%
oral bioavailability [1]: 67%
adiponectin expression (3T3-L1 adipocytes): dramatically up-regulate
